From ChEMBL document CHEMBL5029185, “Discovery of Novel Polycyclic Heterocyclic Derivatives from Evodiamine for the Potential Treatment of Triple-Negative Breast Cancer” (J Med Chem, 2021)
Active and inactive are the calls of the source. No cut-off for these calls is given here.

Tests used:
MDA-MB-231 [1] = experiment: Induction cell cycle arrest in human MDA-MB-231 cells assessed as accumulation at G2 phase at 0.2 uM measured after 48 hrs by PI staining based flow cytometry (reference value: 10.2%); format: functional
A549 = experiment: Antiproliferative activity against human A549 cells assessed as inhibition rate incubated for 72 hrs by MTT assay; format: functional, cell-based; conditions: A549, 72 h
MDA-MB-231 [2] = experiment: Induction of apoptosis in human MDA-MB-231 cells assessed as decrease in Bcl-2 expression at 0.1 to 0.4 uM measured after 48 hrs by Western blot analysis; format: functional, cell-based; conditions: dose 0.1-0.4 µM
[3] = Toxicity in PDTX SCID mouse model at 5 to 20 mg/kg measured upto 7 days; format: organism-based; conditions: in vivo, 168 h, dose 5-20 mg/kg, time <=7 day
MDA-MB-231 [4] = experiment: Effect on Akt expression in human MDA-MB-231 cells at 0.4 uM measured after 48 hrs by Western blot analysis; format: functional, cell-based
Breast carcinoma cell = experiment: Antitumour activity against human TNBC breast carcinoma cell tissue xenografted PDTX SCID mouse model assessed as tumor cell necrosis […] at 5 to 20 mg/kg treated for 7 days; format: functional, organism-based; conditions: dose 5-20 mg/kg, time 7.0 day
MDA-MB-231 [5] = experiment: Induction of ROS generation in human MDA-MB-231 cells by fluorescent dye […] based flow cytometry; format: functional, cell-based
MDA-MB-231 [6] = experiment: Induction cell cycle arrest in human MDA-MB-231 cells assessed as increase in CDK2 expression at 0.4 uM measured after 48 hrs by Western blot analysis; format: functional, cell-based
[7] = molecular target: T1, DNA topoisomerase 1 (Homo sapiens) (UniProt P11387); experiment: Induction of topoisomerase 1-DNA cleavable complex in human MDA-MB-231 cells assessed as increase in cleavable complex by measuring SDS-K+ precipitable complex at 15 uM measured up to 15 hrs by liquid scintillation counting analysis; format: cell-based; conditions: time hrs <=15
T1 sequence (whole entry): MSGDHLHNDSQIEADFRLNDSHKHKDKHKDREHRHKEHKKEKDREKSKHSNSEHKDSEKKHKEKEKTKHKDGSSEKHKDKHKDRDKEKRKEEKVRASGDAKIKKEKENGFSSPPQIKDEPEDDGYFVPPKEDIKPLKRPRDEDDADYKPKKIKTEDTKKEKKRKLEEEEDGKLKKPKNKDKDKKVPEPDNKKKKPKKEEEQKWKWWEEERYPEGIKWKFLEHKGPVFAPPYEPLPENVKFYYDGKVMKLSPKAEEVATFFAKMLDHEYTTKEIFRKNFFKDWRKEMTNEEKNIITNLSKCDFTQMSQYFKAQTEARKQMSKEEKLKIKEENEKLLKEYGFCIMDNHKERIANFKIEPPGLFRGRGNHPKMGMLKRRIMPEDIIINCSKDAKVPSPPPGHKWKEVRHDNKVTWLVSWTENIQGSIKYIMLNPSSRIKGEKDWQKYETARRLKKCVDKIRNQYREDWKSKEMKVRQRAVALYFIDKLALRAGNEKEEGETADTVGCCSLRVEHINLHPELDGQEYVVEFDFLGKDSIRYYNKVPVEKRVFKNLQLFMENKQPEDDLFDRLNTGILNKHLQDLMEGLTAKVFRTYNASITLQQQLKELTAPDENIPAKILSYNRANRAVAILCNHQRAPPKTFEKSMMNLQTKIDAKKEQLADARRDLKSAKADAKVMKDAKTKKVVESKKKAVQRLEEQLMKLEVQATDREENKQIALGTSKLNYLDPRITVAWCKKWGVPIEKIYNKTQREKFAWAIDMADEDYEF

MDA-MB-231 [8] = experiment: Induction cell cycle arrest in human MDA-MB-231 cells assessed as accumulation at G2 phase at 0.4 uM measured after 48 hrs by PI staining based flow cytometry (reference value: 10.2%); format: functional
MDA-MB-231 [9] = experiment: Effect on PI3K expression in human MDA-MB-231 cells at 0.4 uM measured after 48 hrs by Western blot analysis; format: functional, cell-based
MDA-MB-231 [10] = experiment: Induction cell cycle arrest in human MDA-MB-231 cells assessed as accumulation at G1 phase at 0.4 uM measured after 48 hrs by PI staining based flow cytometry (reference value: 53.7%); format: functional
MDA-MB-231 [11] = experiment: Induction cell cycle arrest in human MDA-MB-231 cells assessed as accumulation at S phase at 0.1 uM measured after 48 hrs by PI staining based flow cytometry (reference value: 36%); format: functional
MDA-MB-231 [12] = experiment: Inhibition of PI3K phosphorylation in human MDA-MB-231 cells at 0.4 uM measured after 48 hrs by Western blot analysis; format: cell-based
MDA-MB-435 = experiment: Antiproliferative activity against human MDA-MB-435 cells assessed as inhibition rate incubated for 72 hrs by MTT assay; format: functional, cell-based; conditions: MDA-MB-435, 72 h
MDA-MB-231 [13] = experiment: Induction cell cycle arrest in human MDA-MB-231 cells assessed as accumulation at G1 phase at 0.2 uM measured after 48 hrs by PI staining based flow cytometry (reference value: 53.7%); format: functional
MDA-MB-231 [14] = experiment: Antiproliferative activity against human MDA-MB-231 cells assessed as inhibition rate at 100 uM incubated for 72 hrs by MTT assay; format: functional
LoVo = experiment: Antiproliferative activity against human LoVo cells assessed as inhibition rate incubated for 72 hrs by MTT assay; format: functional, cell-based
HCT-116 = experiment: Antiproliferative activity against human HCT-116 cells assessed as inhibition rate incubated for 72 hrs by MTT assay; format: functional, cell-based; conditions: HCT-116, 72 h
MDA-MB-231 [15] = experiment: Induction cell cycle arrest in human MDA-MB-231 cells assessed as accumulation at G2 phase at 0.1 uM measured after 48 hrs by PI staining based flow cytometry (reference value: 10.2%); format: functional
MDA-MB-231 [16] = experiment: Induction of mitochondrial membrane disruption in human MDA-MB-231 cells assessed as mitochondrial dysfunction at 0.2 uM measured after 48 hrs by JC-1 staining based flow cytometry (reference value: 3%); format: functional
MDA-MB-231 [17] = experiment: Induction cell cycle arrest in human MDA-MB-231 cells assessed as accumulation at G1 phase at 0.1 uM measured after 48 hrs by PI staining based flow cytometry (reference value: 53.7%); format: functional
[18] = Ratio of IC50 for antiproliferative activity against human MDA-MB-231 cells transfected with siRNA-Top1 to IC50 for antiproliferative activity against human MDA-MB-231 cells transfected with siRNA-Ctrl assessed as cell viability by MTT assay; format: functional
4T1 = experiment: Antiproliferative activity against mouse 4T1 cells assessed as inhibition rate incubated for 72 hrs by MTT assay; format: functional, cell-based; conditions: 4T1, 72 h
MDA-MB-231 [19] = experiment: Induction cell cycle arrest in human MDA-MB-231 cells assessed as increase in p53 expression at 0.4 uM measured after 48 hrs by Western blot analysis; format: functional, cell-based
MDA-MB-231 [20] = experiment: Induction cell cycle arrest in human MDA-MB-231 cells assessed as accumulation at S phase at 0.4 uM measured after 48 hrs by PI staining based flow cytometry (reference value: 36%); format: functional
MDA-MB-231 [21] = experiment: Induction of mitochondrial membrane disruption in human MDA-MB-231 cells assessed as mitochondrial dysfunction at 0.4 uM measured after 48 hrs by JC-1 staining based flow cytometry (reference value: 3%); format: functional
HepG2 = experiment: Antiproliferative activity against human HepG2 cells assessed as inhibition rate incubated for 72 hrs by MTT assay; format: functional, cell-based; conditions: HepG2, 72 h

Q: Which Activity (MDA-MB-231 [1]) does the source give for `O=C1c2cc(Cl)ccc2OC2c3oc4ccc(O)cc4c3CCN12` (stereo not drawn) here?
A: Its Activity is 5.3%.

Q: And the IC50 (A549)?
A: Its IC50 is 5240 nM.

Q: And the Activity (MDA-MB-231 [2])?
A: The Activity was “Active”.

Q: What about the Activity [3] of the same molecule?
A: Its Activity is “Non-Toxic”.

Q: And the Activity (MDA-MB-231 [4])?
A: The Activity was “inactive”.

Q: And the Activity (Breast carcinoma cell)?
A: Its Activity is “Active”.

Q: What about the Activity (MDA-MB-231 [5]) of the same molecule?
A: Its Activity is “Active”.

Q: What about the Activity (MDA-MB-231 [6]) of the same molecule?
A: Its Activity is “Active”.

Q: What about the Activity [7] of the same molecule?
A: The Activity was “Active”.

Q: And the Activity (MDA-MB-231 [8])?
A: Its Activity is 6.9%.

Q: And the Activity (MDA-MB-231 [9])?
A: The Activity was “inactive”.

Q: What about the Activity (MDA-MB-231 [10]) of the same molecule?
A: Its Activity is 70.2%.

Q: And the Activity (MDA-MB-231 [11])?
A: The Activity was 24.7%.

Q: What about the inhibition (MDA-MB-231 [12]) of the same molecule?
A: The inhibition was “Active”.

Q: What about the IC50 (MDA-MB-435) of the same molecule?
A: Its IC50 is 420 nM.

Q: What about the Activity (MDA-MB-231 [13]) of the same molecule?
A: Its Activity is 72.3%.

Q: What about the inhibition at 100 µM (MDA-MB-231 [14]) of the same molecule?
A: Its inhibition at 100 µM is 95.8%.

Q: What about the IC50 (LoVo) of the same molecule?
A: Its IC50 is 7310 nM.

Q: What about the IC50 (HCT-116) of the same molecule?
A: The IC50 was 760 nM.

Q: What about the Activity (MDA-MB-231 [15]) of the same molecule?
A: The Activity was 7.2%.

Q: What about the Activity (MDA-MB-231 [16]) of the same molecule?
A: The Activity was 18.5%.

Q: What about the Activity (MDA-MB-231 [17]) of the same molecule?
A: Its Activity is 68.1%.

Q: And the “Ratio IC50” value [18]?
A: Its value is 12.7.

Q: What about the IC50 (4T1) of the same molecule?
A: The IC50 was 730 nM.

Q: And the Activity (MDA-MB-231 [19])?
A: Its Activity is “Active”.

Q: What about the Activity (MDA-MB-231 [20]) of the same molecule?
A: The Activity was 22.9%.

Q: And the Activity (MDA-MB-231 [21])?
A: The Activity was 25%.

Q: What about the IC50 (HepG2) of the same molecule?
A: The IC50 was 4650 nM.
